PMC9998865, “The toxic natural product tutin causes epileptic seizures in mice by activating calcineurin” (Signal Transduction and Targeted Therapy, 2023)

Columns and labels:
[1] = biological target: T1, calcineurin (CN) catalytic subunit A (CNA); serine/threonine-protein phosphatase 2B catalytic subunit alpha isoform (Homo sapiens, UniProt Q08209); test: microscale thermophoresis (MST); supported by HDX-MS, CETSA and in vitro activation of CN; type: binding
T1 construct: gene PPP3CA; human CNA/CNB (CNA: M1-N370, CNB: 16-170), His-tagged, E. coli; with calcineurin B (CNB)

[2] = biological target: T2, calcineurin (CN) catalytic subunit A (CNA), CN-R254K (Homo sapiens, UniProt Q08209, R254K); test: microscale thermophoresis (MST); type: binding
T2 construct: gene PPP3CA; human CNA/CNB (CNA: M1-N370, CNB: 16-170); with calcineurin B (CNB)

Molecule C=C(C)[C@@H]1[C@H]2OC(=O)[C@@H]1[C@]1(O)[C@H]3O[C@H]3[C@]3(CO3)[C@]1(C)[C@@H]2O [tutin] has a Kd [1] of 0.28 ± 0.27 µM and a Kd [2] of 7.64 ± 4.48 µM.
